Measured values published in patent US20120142771A1, “BIPHENYLACETAMIDE DERIVATIVE” (Dainippon Sumitomo Pharma Co., Ltd., priority 2008, published 2012).
Read-outs that look alike come from different tables or passages of the source.

Tests used:
Type in all cases: in vivo, mice
[1] = test system: subcutaneously pentetrazol-injected model (scPTZ); test: Subcutaneously pentetrazol-injected model (scPTZ) test; settings: pentetrazol 85 mg/kg s.c. after 1 hour; for responders at 50 mg/kg / responders at 100 mg/kg: Mus musculus, po, 1 h, read-out: scPTZ (positive number/tested number) (converted); for responders at 50 mg/kg / responders at 100 mg/kg / scPTZ (positive number/tested number): Slc: ddY male mice, 3 per group, observed 30 minutes for clonic convulsion; for anticonvulsant action in subcutaneously pentetrazol-injected model (scPTZ) test: mice, oral 50 or 100 mg/kg
In short: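 Pentetrazol (85 mg/kg, s.c.) was injected one hour after oral test compound at 50 or 100 mg/kg in groups of three male Slc:ddY mice weighing 20-30 g; vehicle controls got 0.5% tragacanth or 0.5% methylcellulose.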

[2] = test system: 6 Hz psychomotor seizure model; test: 6 Hz psychomotor seizure model; settings: for ED50: Mus musculus; for efficacy in 6 Hz psychomotor seizure model: oral administration at a dose of 100 mg/kg; for 6 Hz (Positive number/tested number): dose 100 mg/kg, 30 minutes or 1 hour after administration
Procedure: Test 4: Test of 6 Hz Psychomotor Seizure Model
Similar to Tests 1 and 2, Test 4 evaluates the anticonvulsant action of medicaments. However, unlike Tests 1 and 2, the animal model used herein represents clinical phenotypes of seizures resistant to existing antiepileptic drugs. […] After 30 minutes or an hour of administration, their corneas were electrically stimulated (6 Hz, 32 mA, 3 seconds) to induce symptoms of myoclonus in their forelimbs, Straub tail, and immobility. […] To the control mice, 0.5% tragacanth solution, 0.5% methylcellulose solution, or olive oil was administered.

[3] = test system: maximum electroshock seizure (MES) model; test: Maximum electroshock seizure (MES) model test; settings: for responders at 50 mg/kg / responders at 100 mg/kg: Mus musculus, po, 1 h; for responders at 50 mg/kg / responders at 100 mg/kg / MES (positive number/tested number): inhibition of hind limb extension; for anticonvulsant action in maximum electroshock seizure (MES) model test: mice, oral 50 or 100 mg/kg, 1 hour after administration
In short: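 Tonic hind-limb extension was elicited by corneal electroshock (60 Hz, 25 mA, 0.2 s) 1 h after oral dosing. Test compounds were given at 50 or 100 mg/kg to groups of 3 male Slc: ddY mice (20-30 g), vehicle controls receiving 0.5% tragacanth or 0.5% methylcellulose solution.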

[4] = 6 Hz psychomotor seizure model, mice, oral, read-out: ED50
[5] = 50 mg/kg oral, Slc: ddY male mice, 3 per group, electrical stimulation 1 hour after administration, read-out: MES (positive number/tested number) (converted)
[6] = 100 mg/kg oral, Slc: ddY male mice, 3 per group, electrical stimulation 1 hour after administration, read-out: MES (positive number/tested number) (converted)
[7] = 50 mg/kg oral, Slc: ddY male mice, 3 per group, electrical stimulation 1 hour after administration
[8] = 100 mg/kg oral, Slc: ddY male mice, 3 per group, electrical stimulation 1 hour after administration

Row | SMILES | responders at 50 mg/kg ([1]; 50 mg/kg oral) [%] | responders at 100 mg/kg ([1]; 100 mg/kg oral) [%] | anticonvulsant action in subcutaneously pentetrazol-injected model (scPTZ) test [1] | ED50 [2, 4] [mg/kg] | efficacy in 6 Hz psychomotor seizure model ([2]; mice) | 6 Hz (Positive number/tested number) ([2]; mice, oral) | responders at 50 mg/kg [3, 5] [%] | responders at 100 mg/kg [3, 6] [%] | anticonvulsant action in maximum electroshock seizure (MES) model test [3] | scPTZ (positive number/tested number) ([1]; 50 mg/kg oral) | scPTZ (positive number/tested number) ([1]; 100 mg/kg oral) | ED50 ([2]; po) [mg/kg] | MES (positive number/tested number) [3, 7] | responders at 100 mg/kg ([3]; read-out: MES (positive number/tested number), 100 mg/kg oral, Slc: ddY male mice, 3 per group, electrical stimulation 1 hour after administration) [%] | MES (positive number/tested number) [3, 8]
1 | NC(=O)[C@H](O)c1ccccc1-c1ccccc1 (single isomer, unassigned) [Example 207, 2-(Biphenyl-2-yl)-2R-hydroxyacetamide] | 66.7 | 66.7 | anticonvulsant action was observed | 86.6 | potent efficacy | 7/10/100 | 66.7 | 100 | anticonvulsant action was observed |  |  |  |  |  | 
2 | NC(=O)C(F)c1ccccc1-c1ccccc1 (single isomer, unassigned) [Example 209, 2-(Biphenyl-2-yl)-2-fluoroacetamide] |  |  | anticonvulsant action was observed |  |  | 6/10/100 |  |  | anticonvulsant action was observed | 2/3 | 2/3 | 109 | 3/3 | 100 | 
3 | NC(=O)C(F)c1ccccc1-c1ccccc1 (single isomer, unassigned) [Example 210, 2-(Biphenyl-2-yl)-2-fluoroacetamide] |  |  | anticonvulsant action was observed |  |  | 4/5/100 |  |  | anticonvulsant action was observed | 3/3 | 3/3 |  | 2/3 |  | 3/3
4 | NC(=O)C(O)c1ccccc1-c1cccc(F)c1 (single isomer, unassigned) [Example 211, 2-(3′-Fluorobiphenyl-2-yl)-2-hydroxyacetamide] | 66.7 | 66.7 | anticonvulsant action was observed | 100 |  | 5/10/100 | 100 | 100 | anticonvulsant action was observed |  |  |  |  |  | 
5 | NC(=O)C(O)c1ccccc1-c1cccc(F)c1 (single isomer, unassigned) [Example 212, 2-(3′-Fluorobiphenyl-2-yl)-2-hydroxyacetamide] |  |  | anticonvulsant action was observed |  |  | 1/5/100 |  |  | anticonvulsant action was observed | 2/3 | 2/3 |  | 3/3 |  | 3/3
6 | NC(=O)[C@H](O)c1ccccc1-c1cc(Cl)cc(Cl)c1 (single isomer, unassigned) [Example 215, 2-(3′,5′-Dichlorobiphenyl-2-yl)-2R-hydroxyacetamide] | 0 | 66.7 |  | 64.8 |  | 7/10/100 | 66.7 | 66.7 |  |  |  |  |  |  | 
7 | NC(=O)Cc1ccccc1-c1cccc(Cl)c1 [Example 13, 2-(3′-chlorobiphenyl-2-yl)acetamide] | 100 | 66.7 | anticonvulsant action was observed |  |  | 2/10/100 | 66.7 | 100 | anticonvulsant action was observed |  |  |  |  |  | 
8 | NC(=O)Cc1ccc(F)cc1-c1ccccc1 [Example 39, 2-(5-fluorobiphenyl-2-yl)acetamide] | 33.3 | 66.7 |  |  |  | 1/5/100 | 100 | 100 |  |  |  |  |  |  | 
9 | NC(=O)Cc1ccc(F)cc1-c1ccccc1F [Example 41, 2-(2′,5-difluorobiphenyl-2-yl)acetamide] | 66.7 | 66.7 | anticonvulsant action was observed |  |  | 4/5/100 | 100 | 100 | anticonvulsant action was observed |  |  |  |  |  | 
10 | NC(=O)Cc1ccccc1-c1ccccc1 [Example 50, 2-(biphenyl-2-yl)acetamide] |  | 33.3 |  |  |  | 3/5/100 | 66.7 | 100 |  |  |  |  |  |  | 
11 | NC(=O)Cc1ccccc1-c1cccc(Br)c1 [Example 52, 2-(3′-bromobiphenyl-2-yl)acetamide] | 33.3 | 66.7 |  |  |  | 1/5/100 | 66.7 | 100 |  |  |  |  |  |  | 
12 | NC(=O)C(O)c1ccccc1-c1ccccc1 (stereo not shown) [Example 59, 2-(Biphenyl-2-yl)-2-hydroxyacetamide] | 0 | 66.7 |  | 91.5 |  | 7/10/100 | 100 | 100 |  |  |  |  |  |  | 
13 | NC(=O)C(O)c1ccccc1-c1ccccc1F (stereo not shown) [Example 60, 2-(2′-Fluorobiphenyl-2-yl)-2-hydroxyacetamide] | 33.3 | 66.7 |  |  |  | 1/5/100 | 100 | 100 |  |  |  |  |  |  | 
14 | NC(=O)Cc1ccccc1-c1cc(Cl)cc(Cl)c1Cl [Example 64, 2-(2′,3′,5′-Trichlorobiphenyl-2-yl)acetamide] | 0 | 100 |  |  |  | 3/5/100 | 100 | 100 |  |  |  |  |  |  | 
15 | NC(=O)Cc1ccccc1-c1ccc(Cl)cc1Cl [Example 78, 2-(2′,4′-dichlorobiphenyl-2-yl)acetamide] | 0 | 66.7 |  |  |  | 3/5/100 | 100 | 100 |  |  |  |  |  |  | 
16 | NC(=O)Cc1ccccc1-c1cc(F)cc(Cl)c1 [Example 80, 2-(3′-chloro-5′-fluorobiphenyl-2-yl)acetamide] | 66.7 | 100 | anticonvulsant action was observed |  |  | 4/5/100 | 100 | 100 | anticonvulsant action was observed |  |  |  |  |  | 
17 | NC(=O)Cc1ccccc1-c1cccc(F)c1Cl [Example 86, 2-(2′-chloro-3′-fluorobiphenyl-2-yl)acetamide] | 33.3 | 66.7 |  |  |  | 2/5/100 | 100 | 66.7 |  |  |  |  |  |  | 
18 | NC(=O)Cc1ccccc1-c1cc(F)ccc1Cl [Example 88, 2-(2′-chloro-5′-fluorobiphenyl-2-yl)acetamide] | 66.7 | 100 | anticonvulsant action was observed |  |  | 3/5/100 | 66.7 | 100 | anticonvulsant action was observed |  |  |  |  |  | 
19 | NC(=O)Cc1ccccc1-c1cc(Cl)ccc1C(F)(F)F [Example 91, 2-[5′-chloro-2′-(trifluoromethyl)biphenyl-2-yl]acetamide] | 66.7 | 66.7 | anticonvulsant action was observed |  | potent efficacy | 5/5/100 | 100 | 100 | anticonvulsant action was observed |  |  |  |  |  | 
